Laboratory results published in patent US11066414B2, “Cot modulators and methods of use thereof” (Gilead Sciences, Inc., priority 2015, dated 2021).
Where two headings read alike, the source gives them in different places.

Assays:
TNFα = assay: Cot Monocyte TNFα Cell Based Assay
Human Cot = Human Cot (Homo sapiens (Human), UniProt P41279); assay: High Throughput Cot Biochemical Assay
[1] = Homo sapiens, Monocyte, read-out: EC50 TNF, LPS-stimulated human monocytes, TNFα
[2] = IC50 HTRF, Cot HTRF (TR-FRET) biochemical assay
[3] = Homo sapiens, Monocyte, read-out: EC50 TNF, LPS-stimulated human monocytes, TNFα TR-FRET
[4] = IC50 HTRF, Cot HTRF (TR-FRET KinEASE) biochemical assay, 400 μM ATP
[5] = read-out: EC50 TNF, LPS-stimulated human monocytes, TNFα
[6] = read-out: IC50 HTRF, Cot HTRF (TR-FRET) biochemical assay

Chain of Human Cot (P41279 30-397): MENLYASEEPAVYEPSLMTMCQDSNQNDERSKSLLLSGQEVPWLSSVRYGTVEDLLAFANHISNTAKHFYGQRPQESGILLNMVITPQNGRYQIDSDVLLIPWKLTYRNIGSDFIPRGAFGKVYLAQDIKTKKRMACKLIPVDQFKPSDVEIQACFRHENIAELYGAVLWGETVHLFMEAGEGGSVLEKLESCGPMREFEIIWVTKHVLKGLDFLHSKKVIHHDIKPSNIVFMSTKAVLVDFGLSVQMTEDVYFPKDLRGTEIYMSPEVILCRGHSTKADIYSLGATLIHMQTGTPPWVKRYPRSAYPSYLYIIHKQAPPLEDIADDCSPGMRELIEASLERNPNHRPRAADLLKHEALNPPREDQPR

SMILES	EC50 (TNFα; [1]) [nM]	IC50 (Human Cot; [2]) [nM]	other results
CC(C)(C)N1CCC(n2cc([C@@H](Nc3cc(Cl)c4ncc(C#N)c(Nc5ccc(F)c(Cl)c5)c4c3)c3cnco3)nn2)CC1 [Example 299, (R)-6-(((1-(1-(tert-butyl)piperidin-4-yl)-1H-1,2,3-triazol-4-yl)(oxazol-5-yl)methyl)amino)-8-chloro-4-((3-chloro-4-fluorophenyl)amino)quinoline-3-carbonitrile]	739	18	–
CC(C)(C)CNc1c(C#N)cnc2c(C#N)cc(N[C@H](c3cn(C4(C(F)(F)F)CC4)nn3)c3cccc4c(=O)n(CC(F)(F)F)ccc34)cc12 [Example 875, (S)-4-(neopentylamino)-6-(((1-oxo-2-(2,2,2-trifluoroethyl)-1,2-dihydroisoquinolin-5-yl)(1-(1-(trifluoromethyl)cyclopropyl)-1H-1,2,3-triazol-4-yl)methyl)amino)quinoline-3,8-dicarbonitrile]	–	–	EC50 (TNFα; [3]): 166 nM; IC50 (Human Cot; [4]): 2 nM
N#Cc1cnc2c(Cl)cc(N[C@@H](c3cscn3)c3cn(C4COC4)nn3)cc2c1Nc1ccc(F)c(Cl)c1 [Example 363, (S)-8-chloro-4-((3-chloro-4-fluorophenyl)amino)-6-(((1-(oxetan-3-yl)-1H-1,2,3-triazol-4-yl)(thiazol-4-yl)methyl)amino)quinoline-3-carbonitrile]	257	4	–
COc1nccc2c([C@H](Nc3cc(C#N)c4ncc(C#N)c(NCC(C)(C)C(F)(F)F)c4c3)c3cn(C4(C)CC4)nn3)cccc12 [Example 819, (S)-6-(((1-methoxylsoquinolin-5-yl)(1-(1-methylcyclopropyl)-1H-1,2,3-triazol-4-yl)methyl)amino)-4-((3,3,3-trifluoro-2,2-dimethylpropyl)amino)quinoline-3,8-dicarbonitrile]	–	–	EC50 (TNFα; read-out: EC50 TNF, LPS-stimulated human monocytes, TNFα TR-FRET): 28 nM; IC50 (Human Cot; read-out: IC50 HTRF, Cot HTRF (TR-FRET KinEASE) biochemical assay, 400 μM ATP): 2 nM
Cc1nc(F)ccc1[C@H](Nc1cc(Cl)c2ncc(C#N)c(NCC(C)(C)C)c2c1)c1cn(CC2(C)CC2)nn1 [Example 764, (S)-8-chloro-6-(((6-fluoro-2-methylpyridin-3-yl)(1-((1-methylcyclopropyl)-methyl)-1H-1,2,3-triazol-4-yl)methyl)amino)-4-(neopentylamino)quinoline-3-carbonitrile]	46	4	–
Cc1nc(F)ccc1[C@H](Nc1cc(Cl)c2ncc(C#N)c(NCC(C)(C)C(F)(F)F)c2c1)c1cn(C(C)(C)C)nn1 [Example 715, (S)-6-(((1-(tert-butyl)-1H-1,2,3-triazol-4-yl)(6-fluoro-2-methylpyridin-3-yl)methyl)amino)-8-chloro-4-((3,3,3-trifluoro-2,2-dimethylpropyl)amino)quinoline-3-carbonitrile]	91	3	–
C[C@@H](Nc1c(C#N)cnc2c(Cl)cc(N[C@H](c3cn(C4CCN(C(C)(C)C)CC4)nn3)c3csc4c3CCN(C3COC3)C4)cc12)c1ccccc1 [Example 237]	–	–	EC50 (TNFα; [5]): 29 nM; IC50 (Human Cot; [6]): 1 nM
Cc1nc(F)ccc1[C@H](Nc1cc(Cl)c2ncc(C#N)c(N[C@@H](c3ccccc3)C3CC3)c2c1)c1cn(C2(C(F)(F)F)CC2)nn1 [Example 611, 8-chloro-4-(((R)-cyclopropyl(phenyl)methyl)-amino)-6-(((S)-(6-fluoro-2-methylpyridin-3-yl)(1-(1-(trifluoromethyl)cyclopropyl)-1H-1,2,3-triazol-4-yl)methyl)amino)quinoline-3-carbonitrile]	229	20	–
Cn1ccc2c([C@H](Nc3cc(Cl)c4ncc(C#N)c(NCC(C)(C)C)c4c3)c3cn(C4(CF)CC4)nn3)cccc2c1=O [Example 775, (S)-8-chloro-6-(((1-(1-(fluoromethyl)cyclopropyl)-1H-1,2,3-triazol-4-yl)(2-methyl-1-oxo-1,2-dihydroisoquinolin-5-yl)methyl)amino)-4-(neopentylamino)quinoline-3-carbonitrile]	27	3	–
Cc1nc(F)ccc1[C@H](Nc1cc(C#N)c2ncc(C#N)c(NCC(C)(C)C)c2c1)c1cn(C2(C(F)F)CC2)nn1 [Example 473, (S)-6-(((1-(1-(difluoromethyl)cyclopropyl)-1H-1,2,3-triazol-4-yl)(6-fluoro-2-methylpyridin-3-yl)methyl)amino)-4-(neopentylamino)quinoline-3,8-dicarbonitrile]	26	2	–
CC(C)(C)CNc1c(C#N)cnc2c(C#N)cc(N[C@H](c3cn(C4(C(F)(F)F)CC4)nn3)c3ccc(F)c4cnccc34)cc12 [Example 626]	–	–	EC50 (TNFα; [5]): 35 nM; IC50 (Human Cot; [6]): 5 nM
CC(C)(C)CNc1c(C#N)cnc2c(Cl)cc(N[C@H](c3cn(C4CC4)nn3)c3cccc4ncccc34)cc12 [Example 437, (S)-8-chloro-6-(((1-cyclopropyl-1H-1,2,3-triazol-4-yl)(quinolin-5-yl)methyl)amino)-4-(neopentylamino)quinoline-3-carbonitrile]	82	2	–
Cc1nnc(C2(n3cc([C@@H](Nc4cc(Cl)c5ncc(C#N)c(NCC(C)(C)C)c5c4)c4ccc(F)nc4C)nn3)CC2)o1 [Example 806, (S)-8-chloro-6-(((6-fluoro-2-methylpyridin-3-yl)(1-(1-(5-methyl-1,3,4-oxadiazol-2-yl)cyclopropyl)-1H-1,2,3-triazol-4-yl)methyl)amino)-4-(neopentylamino)quinoline-3-carbonitrile]	–	–	EC50 (TNFα; [3]): 28 nM; IC50 (Human Cot; [4]): 3 nM
CC(C)(C)N1CCC(n2cc([C@@H](Nc3cc(Cl)c4ncc(C#N)c(Nc5ccc(F)c(Cl)c5)c4c3)c3cccnc3Cl)nn2)CC1 [Example 315, (S)-6-(((1-(1-(tert-butyl)piperidin-4-yl)-1H-1,2,3-triazol-4-yl)(2-chloropyridin-3-yl)methyl)arnino)-8-chloro-4-((3-chloro-4-fluorophenyl)amino)quinoline-3-carbonitrile]	–	–	EC50 (TNFα; [5]): 132 nM; IC50 (Human Cot; [6]): 4 nM
Cc1nc(F)ccc1[C@H](Nc1cc(Cl)c2ncc(C#N)c(NCC(C)(C)C)c2c1)c1cn(C(C)(C)C2CC2)nn1 [Example 758, (S)-8-chloro-6-(((1-(2-cyclopropylpropan-2-yl)-1H-1,2,3-triazol-4-yl)(6-fluoro-2-methylpyridin-3-yl)methyl)amino)-4-(neopentylamino)quinoline-3-carbonitrile]	50	4	–
Cc1nc(F)ccc1[C@H](Nc1cc(C#N)c2ncc(C#N)c(NCC(C)(C)C(F)(F)F)c2c1)c1nnn([C@@H](C)CF)c1F [Example 858, 6-(((S)-(5-fluoro-1-((S)-1-fluoropropan-2-yl)-1H-1,2,3-triazol-4-yl)(6-fluoro-2-methylpyridin-3-yl)methyl)amino)-4-((3,3,3-trifluoro-2,2-dimethylpropyl)amino)quinoline-3,8-dicarbonitrile]	–	–	EC50 (TNFα; [3]): 44 nM; IC50 (Human Cot; [4]): 7 nM
N#Cc1cnc2c(Cl)cc(N[C@H](c3c[nH]nn3)c3cncs3)cc2c1Nc1ccc(F)c(Cl)c1 [Example 277, (R)-B-chloro-4-((3-chloro-4-fluorophenyl)amino)-6-((thiazol-5-yl(1H-1,2,3-triazol-4-yl)methyl)amino)quinoline-3-carbonitrile]	–	–	EC50 (TNFα; [5]): 923 nM; IC50 (Human Cot; [6]): 7 nM
Cc1nc(F)ccc1[C@H](Nc1cc(C#N)c2ncc(C#N)c(NCC(C)(C)CCl)c2c1)c1cn(C2(C(F)(F)F)CC2)nn1 [Example 637, (S)-4-((3-chloro-2,2-dimethylpropyl)amino)-6-(((6-fluoro-2-methylpyridin-3-yl)(1-(1-(trifluoromethyl)-cyclopropyl)-1H-1,2,3-triazol-4-yl)methyl)amino)-quinoline-3,8-dicarbonitrile]	85	3	–
Cn1cc2c([C@H](Nc3cc(Cl)c4ncc(C#N)c(NCC(C)(C)C)c4c3)c3cn(C4(C(F)(F)F)CC4)nn3)cccc2n1 [Example 544, (S)-8-chloro-6-(((2-methyl-2H-indazol-4-yl)(1-(1-(trifluoromethyl)cyclopropyl)-1H-1,2,3-triazol-4-yl)methyl)amino)-4-(neopentylamino)quinoline-3-carbonitrile]	210	8	–
CCC(F)(F)Cn1cc([C@@H](Nc2cc(Cl)c3ncc(C#N)c(NCC(C)(C)C)c3c2)c2ccc(F)nc2C)nn1 [Example 750, (S)-8-chloro-6-(((1-(2,2-ifluorobutyl)-1H-1,2,3-triazol-4-yl)(6-fluoro-2-methylpyridin-3-yl)methyl)amino)-4-(neopentylamino)quinoline-3-carbonitrile]	–	–	EC50 (TNFα; [5]): 194 nM; IC50 (Human Cot; [6]): 11 nM
Cn1ncc2c([C@H](Nc3cc(C#N)c4ncc(C#N)c(NCC(C)(C)C)c4c3)c3cn(C4CC4)nn3)cccc21 [Example 609, (S)-6-(((1-cyclopropyl-1H-1,2,3-triazol-4-yl)(1-methyl-1H-indazol-4-yl)methyl)amino)-4-(neopentylamino)quinoline-3,8-dicarbonitrile]	46	2	–
N#CCCC(Nc1c(C#N)cnc2c(Cl)cc(N[C@H](c3cn(C4CC4)nn3)c3csc4c3CCN(C3COC3)C4)cc12)c1ccccc1 (stereo partly drawn) [Example 90, 8-chloro-4-((3-cyano-1-phenyl-propyl)amino)-6-(((S)-(1-cyclopropyl-1H-1,2,3-triazol-4-yl)(6-(oxetan-3-yl)-4,5,6,7-tetrahydrothieno[2,3-c]pyridin-3-yl)methyl)amino)quinoline-3-carbonitrile]	18	1	–
Cn1nccc1[C@H](Nc1cc(Cl)c2ncc(C#N)c(Nc3ccc(Cl)c(Cl)c3F)c2c1)c1c[nH]nn1 [Example 216, (S)-8-chloro-4-((3,4-dichloro-2-fluorophenyl)amino)-6-(((1-methyl-1H-pyrazol-5-yl)(1H-1,2,3-triazol-4-yl)methyl)amino)quinoline-3-carbonitrile]	1190	38	–
